# Columns and labels:
# [1] = tested on: B. subtilis 168; assay: Bliss interaction score (quartile over a dose matrix) (fitness difference); higher = more antagonism (negative = synergy)
# Summary of the method: (§1)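 Each plate was normalised to the robust mean of its own no-drug wells, using OD595 at entry into stationary phase, with values capped at 1. This normalised growth is the fitness value. The Bliss score is the difference between observed and product-expected fitness, with single-drug fitness inferred from the combination data and quartiles taken over technical, biological and donor/recipient replicates.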
# [2] = tested on: S. pneumoniae D39V; assay: as above
# Summary of the method: as §1
# [3] = tested on: S. aureus Newman; assay: as above
# Summary of the method: as §1
# [4] = tested on: S. aureus DSM 20231; assay: as above
# Summary of the method: as §1
# [5] = tested on: S. pneumoniae D39V; assay: fitness (endpoint OD595 vs no drug) (fraction); higher = more growth
# Summary of the method: (§2)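 In 384-well plates at 37 °C, cultures began at OD595 0.01 in 30 µl, with 55 µl used for S. pneumoniae. OD595 readings every 30 min for 14 h were corrected by the first reading. Fitness divides the stationary-phase transition optical density by the robust mean of no-drug control wells. The result is capped at 1.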
# [6] = tested on: S. aureus Newman; assay: as above
# Summary of the method: as §2
# [7] = tested on: S. aureus DSM 20231; assay: as above
# Summary of the method: as §2
# [8] = first compound 0.0625 µg/mL, partner 1.25 µg/mL
# [9] = first compound 0.0625 µg/mL, partner 2.5 µg/mL
# [10] = first compound 0.0625 µg/mL, partner 5 µg/mL
# [11] = first compound 0.125 µg/mL, partner 2.5 µg/mL
# [12] = first compound 0.125 µg/mL, partner 5 µg/mL
# [13] = first compound 0.125 µg/mL, partner 0.1562 µg/mL, main component drawn
# [14] = first compound 0.125 µg/mL, partner 0.3125 µg/mL, main component drawn
# [15] = first compound 0.125 µg/mL, partner 0.62 µg/mL, one replicate, main component drawn
# [16] = first compound 0.125 µg/mL, partner 0.625 µg/mL, main component drawn
# [17] = first compound 0.125 µg/mL, partner 1.24 µg/mL, one replicate, main component drawn
# [18] = first compound 0.125 µg/mL, partner 2.48 µg/mL, one replicate, main component drawn
# [19] = first compound 0.25 µg/mL, partner 0.1562 µg/mL, main component drawn
# [20] = first compound 0.25 µg/mL, partner 0.3125 µg/mL, main component drawn
# [21] = first compound 0.25 µg/mL, partner 0.62 µg/mL, one replicate, main component drawn
# [22] = first compound 0.25 µg/mL, partner 0.625 µg/mL, main component drawn
# [23] = first compound 0.25 µg/mL, partner 1.24 µg/mL, one replicate, main component drawn
# [24] = first compound 0.25 µg/mL, partner 2.48 µg/mL, one replicate, main component drawn
# [25] = first compound 0.5 µg/mL, partner 0.1562 µg/mL, main component drawn
# [26] = first compound 0.5 µg/mL, partner 0.3125 µg/mL, main component drawn
# [27] = first compound 0.5 µg/mL, partner 0.62 µg/mL, one replicate, main component drawn
# [28] = first compound 0.5 µg/mL, partner 0.625 µg/mL, main component drawn
# [29] = first compound 0.5 µg/mL, partner 1.24 µg/mL, one replicate, main component drawn
# [30] = first compound 0.5 µg/mL, partner 2.48 µg/mL, one replicate, main component drawn
# [31] = first compound 0.0625 µg/mL, partner 0.1562 µg/mL, main component drawn
# [32] = first compound 0.0625 µg/mL, partner 0.3125 µg/mL, main component drawn
# [33] = first compound 0.0625 µg/mL, partner 0.625 µg/mL, main component drawn
# 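Throughout, for Bliss interaction score (quartile over a dose matrix): first quartile when negative (synergy) and third quartile when positive (antagonism).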
smiles,measurement,setting,value
CC1(C)S[C@@H]2[C@H](NC(=O)[C@H](N)c3ccc(O)cc3)C(=O)N2[C@H]1C(=O)O [Amoxicillin] + CN1C2=CC=CC=C2N=C3C1=CC=CC3=O [Pyocyanin],Bliss interaction score,[1],-0.0439
same,Bliss interaction score,[2],0.0791
same,Bliss interaction score,[3],0.0587
same,Bliss interaction score,[4],0.0915
same,fitness,"[5]; first compound 0.0008 µg/mL, partner 0.325 µg/mL",0.992
same,fitness,"[5]; first compound 0.0008 µg/mL, partner 0.65 µg/mL",0.987
same,fitness,"[5]; first compound 0.0008 µg/mL, partner 1.3 µg/mL, one replicate",0.907
same,fitness,"[5]; first compound 0.0015 µg/mL, partner 0.325 µg/mL",≥ 1
same,fitness,"[5]; first compound 0.0015 µg/mL, partner 0.65 µg/mL",0.978
same,fitness,"[5]; first compound 0.0015 µg/mL, partner 1.3 µg/mL",0.935
same,fitness,"[5]; first compound 0.003 µg/mL, partner 0.325 µg/mL",≥ 1
same,fitness,"[5]; first compound 0.003 µg/mL, partner 0.65 µg/mL",0.974
same,fitness,"[5]; first compound 0.003 µg/mL, partner 1.3 µg/mL",0.945
same,fitness,"[5]; first compound 0.006 µg/mL, partner 0.325 µg/mL, one replicate",0.624
same,fitness,"[5]; first compound 0.006 µg/mL, partner 0.65 µg/mL, one replicate",0.63
same,fitness,"[5]; first compound 0.006 µg/mL, partner 1.3 µg/mL, one replicate",0.734
same,fitness,[6]; [8],0.829
same,fitness,[6]; [9],0.71
same,fitness,[6]; [10],0.486
same,fitness,[6]; [11],0.767
same,fitness,[6]; [12],0.374
same,fitness,[7]; [8],0.673
same,fitness,[7]; [9],0.635
same,fitness,[7]; [10],0.435
same,fitness,"[7]; first compound 0.125 µg/mL, partner 1.25 µg/mL",0.418
same,fitness,[7]; [11],0.417
same,fitness,[7]; [12],0.254
same,fitness,"[7]; first compound 0.25 µg/mL, partner 1.25 µg/mL",0.216
same,fitness,"[7]; first compound 0.25 µg/mL, partner 2.5 µg/mL",0.195
same,fitness,"[7]; first compound 0.25 µg/mL, partner 5 µg/mL",0.121
same,fitness,"[7]; first compound 0.5 µg/mL, partner 1.25 µg/mL, one replicate",0.0229
same,fitness,"[7]; first compound 0.5 µg/mL, partner 2.5 µg/mL, one replicate",0.0134
same,fitness,"[7]; first compound 0.5 µg/mL, partner 5 µg/mL, one replicate",0.0115
CO/N=C(\C(=O)N[C@@H]1C(=O)N2C(C(=O)[O-])=C(C[N+]3(C)CCCC3)CS[C@H]12)c1csc(N)n1 [Cefepime] + CCCCCCCCCC(=O)N[C@@H]1[C@H]([C@@H]([C@H](O[C@H]1OC2=C3C=C4C=C2OC5=C(C=C(C=C5)[C@H]([C@H]6C(=O)N[C@@H](C7=C(C(=CC(=C7)O)OC8[C@H]([C@H]([C@@H]([C@H](O8)CO)O)O)O)C9=C(C=CC(=C9)[C@H](C(=O)N6)NC(=O)[C@@H]4NC(=O)[C@@H]1C2=CC(=CC(=C2)OC2=C(C=CC(=C2)[C@H](C(=O)N[C@H](CC2=CC(=C(O3)C=C2)Cl)C(=O)N1)N)O)O)O)C(=O)O)O[C@H]1[C@@H]([C@H]([C@@H]([C@H](O1)CO)O)O)NC(=O)C)Cl)CO)O)O [Teicoplanin],Bliss interaction score,[1]; main component drawn,-0.172
same,Bliss interaction score,[2]; main component drawn,0.0453
same,Bliss interaction score,[3]; main component drawn,-0.0867
same,Bliss interaction score,[4]; main component drawn,-0.0986
same,fitness,[6]; [13],0.892
same,fitness,[6]; [14],0.897
same,fitness,[6]; [15],0.712
same,fitness,[6]; [16],0.891
same,fitness,[6]; [17],0.7
same,fitness,[6]; [18],0.459
same,fitness,[6]; [19],0.827
same,fitness,[6]; [20],0.799
same,fitness,[6]; [21],0.61
same,fitness,[6]; [22],0.766
same,fitness,[6]; [23],0.634
same,fitness,[6]; [24],0.173
same,fitness,[6]; [25],0.713
same,fitness,[6]; [26],0.73
same,fitness,[6]; [27],0.625
same,fitness,[6]; [28],0.646
same,fitness,[6]; [29],0.576
same,fitness,[6]; [30],0.203
same,fitness,[7]; [13],0.9
same,fitness,[7]; [14],0.959
same,fitness,[7]; [16],0.984
same,fitness,[7]; [19],0.88
same,fitness,[7]; [20],0.929
same,fitness,[7]; [22],0.87
same,fitness,[7]; [25],0.864
same,fitness,[7]; [26],0.919
same,fitness,[7]; [28],0.842
CC1(C)S[C@@H]2[C@H](NC(=O)[C@H](N)c3ccc(O)cc3)C(=O)N2[C@H]1C(=O)O [Amoxicillin] + CCCCCCCCCC(=O)N[C@@H]1[C@H]([C@@H]([C@H](O[C@H]1OC2=C3C=C4C=C2OC5=C(C=C(C=C5)[C@H]([C@H]6C(=O)N[C@@H](C7=C(C(=CC(=C7)O)OC8[C@H]([C@H]([C@@H]([C@H](O8)CO)O)O)O)C9=C(C=CC(=C9)[C@H](C(=O)N6)NC(=O)[C@@H]4NC(=O)[C@@H]1C2=CC(=CC(=C2)OC2=C(C=CC(=C2)[C@H](C(=O)N[C@H](CC2=CC(=C(O3)C=C2)Cl)C(=O)N1)N)O)O)O)C(=O)O)O[C@H]1[C@@H]([C@H]([C@@H]([C@H](O1)CO)O)O)NC(=O)C)Cl)CO)O)O [Teicoplanin],Bliss interaction score,[1]; main component drawn,-0.1
same,Bliss interaction score,[2]; main component drawn,-0.0856
same,Bliss interaction score,[3]; main component drawn,0.0682
same,Bliss interaction score,[4]; main component drawn,0.0453
same,fitness,[6]; [31],0.947
same,fitness,[6]; [32],0.898
same,fitness,[6]; [33],0.823
same,fitness,[6]; [13],0.94
same,fitness,[6]; [14],0.913
same,fitness,[6]; [15],0.747
same,fitness,[6]; [16],0.853
same,fitness,[6]; [17],0.689
same,fitness,[6]; [18],0.396
same,fitness,[6]; [19],0.848
same,fitness,[6]; [20],0.815
same,fitness,[6]; [21],0.725
same,fitness,[6]; [22],0.73
same,fitness,[6]; [23],0.785
same,fitness,[6]; [24],0.491
same,fitness,[6]; [27],0.724
same,fitness,[6]; [29],0.684
same,fitness,[6]; [30],0.462
same,fitness,[7]; [31],0.575
same,fitness,[7]; [32],0.658
same,fitness,[7]; [33],0.619
same,fitness,[7]; [13],0.408
same,fitness,[7]; [19],0.199
same,fitness,[7]; [22],0.0287
same,fitness,"[7]; first compound 0.5 µg/mL, partner 0.1562 µg/mL, one replicate, main component drawn",0.0188
same,fitness,"[7]; first compound 0.5 µg/mL, partner 0.3125 µg/mL, one replicate, main component drawn",0.0061
same,fitness,"[7]; first compound 0.5 µg/mL, partner 0.625 µg/mL, one replicate, main component drawn",0.0019

# From the supplement of paper PMC10627819
